Bounds are passed on as bounds.

Data set [1] addresses T1, human dopamine D2L receptors (long isoform) (Homo sapiens, UniProt P14416).
T1 construct: expressed in transfected cells; host or cells: HEK-293
As to the kind of experiment: Dopamine D2L receptor binding ([125I]iodospiperone displacement). The note with it: selectivity ratio, human D2L vs human D3 binding. The procedure:
The substance to be tested was either dissolved in methanol/Chremophor® (BASF SE) or in dimethyl sulfoxide and then diluted with water to the desired concentration.
Each assay mixture was run in triplicate. • The incubation buffer contained 50 mM tris, 120 mM NaCl, 5 mM KCl, 2 mM CaCl2, 2 mM MgCl2 and 0.1% bovine serum albumin, 10 μM quinolone and 0.1% ascorbic acid (prepared fresh daily). […] Each assay mixture was run in triplicate. • The incubation buffer contained 50 mM tris, 120 mM NaCl, 5 mM KCl, 2 mM CaCl2, 2 mM MgCl2 and 0.1% bovine serum albumin. The buffer was adjusted to pH 7.4 with HCl. c) Measurement and analysis: • After having been incubated at 25° C. for 60 minutes, the assay mixtures were filtered through a Whatman GF/B glass fiber filter under vacuum using a cell col-lecting device. The filters were transferred to scintillation viols using a filter transfer system. After 4 ml of Ultima Gold® (Packard) have been added, the samples were shaken for one hour and the radioactivity was then counted in a Beta-Counter (Packard, Tricarb 2000 or 2200CA).

Data set [2] is described as follows: Determination of the microsomal half-life / microsomal clearance. The note with it: pH 7.4; human liver microsomes, 0.5 μM test substance, 0.25 mg protein/ml, NADPH, 37° C.; read-out: Human mCl (mikrosomal clearance). It counts as in vitro ADME. The protocol:
The metabolic stability of the compounds of the invention was determined in the following assay.
The test substances were incubated in a concentration of 0.5 μM as follows:
0.5 μM test substance are preincubated together with liver microsomes from different species (from rat, human or other species) (0.25 mg of microsomal protein/ml) in 0.05 M potassium phosphate buffer of pH 7.4 in microtiter plates at 37° C. for 5 min. The reaction is started by adding NADPH (1 mg/mL). After 0, 5, 10, 15, 20 and 30 min, 50 μl aliquots are removed, and the reaction is immediately stopped and cooled with the same volume of acetonitrile. The samples are frozen until analyzed. The remaining concentration of undegraded test substance is determined by MSMS. The half-life (T1/2) is determined from the gradient of the signal of test substance/unit time plot, it being possible to calculate the half-life of the test substance, assuming first order kinetics, from the decrease in the concentration of the compound with time. The microsomal clearance (mC1) is calculated from mC1=1n2/T1/2/(content of microsomal protein in mg/ml)×1000 [ml/min/mg] (modified from references: Di, The Society for Biomoleculur Screening, 2003, 453-462; Obach, DMD, 1999 vol 27. N 11, 1350-1359).
For orientation: Liver microsomes are vesicles of endoplasmic reticulum, rich in cytochrome P450 enzymes.

T1 sequence (P14416 whole entry, canonical isoform): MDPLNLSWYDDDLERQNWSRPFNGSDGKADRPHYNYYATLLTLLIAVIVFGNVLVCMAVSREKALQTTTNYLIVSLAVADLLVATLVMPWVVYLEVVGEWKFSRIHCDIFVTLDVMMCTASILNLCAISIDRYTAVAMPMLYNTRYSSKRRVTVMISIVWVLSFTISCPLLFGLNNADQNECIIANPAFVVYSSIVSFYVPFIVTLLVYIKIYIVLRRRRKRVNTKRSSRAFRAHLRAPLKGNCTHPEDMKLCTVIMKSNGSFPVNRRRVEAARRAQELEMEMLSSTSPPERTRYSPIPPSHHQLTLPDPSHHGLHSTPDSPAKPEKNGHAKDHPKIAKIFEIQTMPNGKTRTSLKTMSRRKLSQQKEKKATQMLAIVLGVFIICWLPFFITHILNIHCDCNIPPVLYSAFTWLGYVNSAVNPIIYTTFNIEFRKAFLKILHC

`CC(C)(C)c1nc(C2CCC2)cc(N2CCN(CC[C@H]3CC[C@@H](NC(=O)[C@H]4CC[C@@H](O)CC4)CC3)CC2)n1.O=C(O)C(F)(F)F` [Compound 15, Cis-N-[cis-4-[2-[4-(2-tert-butyl-6-cyclobutyl-pyrimidin-4-yl)piperazin-1-yl]ethyl]cyclohexyl]-4-hydroxy-cyclohexanecarboxamide; 2,2,2-trifluoroacetic acid]: the “D2/D3, Ki (D2L)/Ki (D3)” value in data set [1] is recorded as “+++ (+++ >50)”. For the same compound, the microsomal CLint at 0.5 μM in data set [2] was over 120 µL/min/mg.
The like results for `CC(C)(C)c1nc(C2CCC2)cc(N2CCN(CC[C@H]3C[C@H](NC(=O)[C@H]4CC[C@@H](O)CC4)C3)CC2)n1.O=C(O)C(F)(F)F` [Compound 16, Cis-N-[trans-3-[2-[4-(2-tert-butyl-6-cyclobutyl-pyrimidin-4-yl)piperazin-1-yl]ethyl]cyclobutyl]-4-hydroxy-cyclohexanecarboxamide; 2,2,2-trifluoroacetic acid] were, in that order, “++ (++ >20)” and over 120 µL/min/mg.
The like results for `COCCc1cc(N2CCN(CC[C@H]3CC[C@H](NC(=O)[C@H]4C[C@@H](O)C4)CC3)CC2)nc(C(C)(C)C)n1` [Compound 18, cis-N-[trans-4-[2-[4-[2-tert-butyl-6-(2-methoxyethyl)pyrimidin-4-yl]piperazin-1-yl]ethyl]cyclohexyl]-3-hydroxy-cyclobutanecarboxamide] were, in that order, “+++ (+++ >50)” and 20 to 120 µL/min/mg.
Regarding `CC(C)(C)c1cc(N2CCN(CC[C@H]3CC[C@H](NC(=O)[C@H]4CC[C@H](O)CC4)CC3)CC2)nc(C(C)(C)C)n1` [Compound 20, trans-N-[trans-4-[2-[4-(2,6-ditert-butylpyrimidin-4-yl)piperazin-1-yl]ethyl]cyclohexyl]-4-hydroxy-cyclohexanecarboxamide], in data set [1], the “D2/D3, Ki (D2L)/Ki (D3)” value was “++ (++ >20)”. The microsomal CLint at 0.5 μM in data set [2] is 20 to 120 µL/min/mg.
For the compound `CC(C)(C)c1nc(N2CCN(CC[C@H]3CC[C@H](NC(=O)[C@H]4CC[C@H](O)CC4)CC3)CC2)cc(C(F)(F)F)n1` [Compound 21, trans-N-[trans-4-[2-[4-[2-tert-butyl-6-(trifluoromethyl)pyrimidin-4-yl]piperazin-1-yl]ethyl]cyclohexyl]-4-hydroxy-cyclohexanecarboxamide], the “D2/D3, Ki (D2L)/Ki (D3)” value in data set [1] is on record as “++ (++ >20)”. Also, the microsomal CLint at 0.5 μM in data set [2] was in the range of 20 to 120 µL/min/mg.
Consider `CC(C)(C)c1cc(N2CCN(CC[C@H]3CC[C@@H](NC(=O)[C@H]4CC[C@H](O)CC4)CC3)CC2)nc(C(C)(C)C)n1` [Compound 22, trans-N-[cis-4-[2-[4-(2,6-ditert-butylpyrimidin-4-yl)piperazin-1-yl]ethyl]cyclohexyl]-4-hydroxy-cyclohexanecarboxamide], for which the “D2/D3, Ki (D2L)/Ki (D3)” value in data set [1] is “+++ (+++ >50)”. Also, the microsomal CLint at 0.5 μM in data set [2] lay in the range of 20 to 120 µL/min/mg.
`CC(C)(C)c1nc(N2CCN(CC[C@H]3CC[C@@H](NC(=O)[C@H]4CC[C@H](O)CC4)CC3)CC2)cc(C(F)(F)F)n1` [Compound 23, Trans-N-[cis-4-[2-[4-[2-tert-butyl-6-(trifluoromethyl)pyrimidin-4-yl]piperazin-1-yl]ethyl]cyclohexyl]-4-hydroxy-cyclohexanecarboxamide]: the “D2/D3, Ki (D2L)/Ki (D3)” value in data set [1] is on record as “+++ (+++ >50)”. Moreover, the microsomal CLint at 0.5 μM in data set [2] lay within 20 to 120 µL/min/mg.
Consider `COCCc1cc(N2CCN(CC[C@H]3CC[C@H](NC(=O)[C@H]4CC[C@H](OC)CC4)CC3)CC2)nc(C(C)(C)C)n1` [Compound 24, trans-N-[trans-4-[2-[4-[2-tert-butyl-6-(2-methoxyethyl)pyrimidin-4-yl]piperazin-1-yl]ethyl]cyclohexyl]-4-methoxy-cyclohexanecarboxamide], for which, in data set [1], the “D2/D3, Ki (D2L)/Ki (D3)” value is reported as “++ (++ >20)”. Also, the microsomal CLint at 0.5 μM in data set [2] was over 120 µL/min/mg.
Consider `CC(C)(C)c1nc(N2CCN(CCC3CCC(NC(=O)C4CCC(O)CC4)CC3)CC2)cc(C2(C)CC2)n1` (stereo not drawn) [Compound 27, N-[4-[2-[4-[2-tert-butyl-6-(1-methylcyclopropyl)pyrimidin-4-yl]piperazin-1-yl]ethyl]cyclohexyl]-4-hydroxy-cyclohexanecarboxamide], for which the “D2/D3, Ki (D2L)/Ki (D3)” value in data set [1] was “++ (++ >20)”. In data set [2], the microsomal CLint at 0.5 μM lay within 20 to 120 µL/min/mg.
For `CC(C)(C)c1nc(N2CCN(CC[C@H]3CC[C@@H](NC(=O)[C@H]4CC[C@H](O)CC4)CC3)CC2)cc(C2(C)CC2)n1` [Compound 28, Trans-N-[cis-4-[2-[4-[2-tert-butyl-6-(1-methylcyclopropyl)pyrimidin-4-yl]piperazin-1-yl]ethyl]cyclohexyl]-4-hydroxy-cyclohexanecarboxamide], the “D2/D3, Ki (D2L)/Ki (D3)” value in data set [1] is given as “++ (++ >20)”. In addition, the microsomal CLint at 0.5 μM in data set [2] lay within 20 to 120 µL/min/mg.
Turning to `CC(C)(C)c1nc(C(F)F)cc(N2CCN(CCC3CCC(NC(=O)C4CCC(O)CC4)CC3)CC2)n1` (stereo not drawn) [Compound 29, N-[4-[2-[4-[2-tert-butyl-6-(difluoromethyl)pyrimidin-4-yl]piperazin-1-yl]ethyl]cyclohexyl]-4-hydroxy-cyclohexanecarboxamide], in data set [1], the “D2/D3, Ki (D2L)/Ki (D3)” value is reported as “+ (+ >10)”. Also, in data set [2], the microsomal CLint at 0.5 μM was 20 to 120 µL/min/mg.
The like results for `CC(C)(C)c1nc(C(F)F)cc(N2CCN(CC[C@H]3CC[C@@H](NC(=O)[C@H]4CC[C@H](O)CC4)CC3)CC2)n1` [Compound 30, Trans-N-[cis-4-[2-[4-[2-tert-butyl-6-(difluoromethyl)pyrimidin-4-yl]piperazin-1-yl]ethyl]cyclohexyl]-4-hydroxy-cyclohexanecarboxamide] were, in that order, “++ (++ >20)” and 20 to 120 µL/min/mg.
For `CC(C)c1cc(N2CCN(CCC3CCC(NC(=O)C4CCC(O)CC4)CC3)CC2)nc(C(C)(C)C)n1` (stereo not drawn) [Compound 31, N-[4-[2-[4-(2-tert-butyl-6-isopropyl-pyrimidin-4-yl)piperazin-1-yl]ethyl]cyclohexyl]-4-hydroxy-cyclohexanecarboxamide] the same measures were “++ (++ >20)” and 20 to 120 µL/min/mg.
With `CC(C)c1cc(N2CCN(CC[C@H]3CC[C@H](NC(=O)[C@H]4CC[C@H](O)CC4)CC3)CC2)nc(C(C)(C)C)n1` [Compound 32, Trans-N-[trans-4-[2-[4-(2-tert-butyl-6-isopropyl-pyrimidin-4-yl)piperazin-1-yl]ethyl]cyclohexyl]-4-hydroxy-cyclohexanecarboxamide], the “D2/D3, Ki (D2L)/Ki (D3)” value in data set [1] is recorded as “++ (++ >20)”. For the same compound, the microsomal CLint at 0.5 μM in data set [2] was 20 to 120 µL/min/mg.
For `COCCc1cc(N2CCN(CCC3CCC(NC(=O)C4CCC(O)CC4)CC3)C[C@H]2C)nc(C(C)(C)C)n1` (stereo partly drawn) [Compound 33, N-[4-[2-[(3R)-4-[2-tert-butyl-6-(2-methoxyethyl)pyrimidin-4-yl]-3-methyl-piperazin-1-yl]ethyl]cyclohexyl]-4-hydroxy-cyclohexanecarboxamide] the same measures were “+++ (+++ >50)” and 20 to 120 µL/min/mg.
Consider `COCCc1cc(N2CCN(CC[C@H]3CC[C@H](NC(=O)[C@H]4CC[C@H](O)CC4)CC3)C[C@H]2C)nc(C(C)(C)C)n1` [Compound 34, trans-N-[trans-4-[2-[(3R)-4-[2-tert-butyl-6-(2-methoxyethyl)pyrimidin-4-yl]-3-methyl-piperazin-1-yl]ethyl]cyclohexyl]-4-hydroxy-cyclohexanecarboxamide], for which the “D2/D3, Ki (D2L)/Ki (D3)” value in data set [1] is “+++ (+++ >50)”. In addition, in data set [2], the microsomal CLint at 0.5 μM fell in the range of 20 to 120 µL/min/mg.
For `CC(C)(C)c1nc(C2CCCC2)cc(N2CCN(CC[C@H]3CC[C@H](NC(=O)[C@H]4CC[C@H](O)CC4)CC3)CC2)n1` [Compound 35, trans-N-[trans-4-[2-[4-(2-tert-butyl-6-cyclopentyl-pyrimidin-4-yl)piperazin-1-yl]ethyl]cyclohexyl]-4-hydroxy-cyclohexanecarboxamide], in data set [1], the “D2/D3, Ki (D2L)/Ki (D3)” value is “+ (+ >10)”. Further, the microsomal CLint at 0.5 μM in data set [2] is 20 to 120 µL/min/mg.
Turning to `CC(C)(C)c1nc(C2CCCC2)cc(N2CCN(CC[C@H]3CC[C@@H](NC(=O)[C@H]4CC[C@H](O)CC4)CC3)CC2)n1` [Compound 36, trans-N-[cis-4-[2-[4-(2-tert-butyl-6-cyclopentyl-pyrimidin-4-yl)piperazin-1-yl]ethyl]cyclohexyl]-4-hydroxy-cyclohexanecarboxamide], the “D2/D3, Ki (D2L)/Ki (D3)” value in data set [1] is given as “+++ (+++ >50)”. Further, the microsomal CLint at 0.5 μM in data set [2] is 20 to 120 µL/min/mg.
